# Experimental data: patent EP4737449A1 (Changchun Genescience Pharmaceutical Co., Ltd., priority 2023, dated 2025)
# What was measured:
# p53-Y220C mutant protein = target: T1, p53-Y220C mutant protein (Homo sapiens, UniProt P04637, Y220C); experiment: In vitro DNA binding activity assay (TR-FRET); assay type: biochemical; conditions: concentration required to increase the binding activity of protein to DNA by 50%
# T1 construct: The recombinant Y220C p53 DBD protein with his-tag
# In short: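 SC150, the compound concentration increasing p53-Y220C DNA binding by 50% relative to vehicle, came from background-corrected 665/615 nm TR-FRET ratios. His-tagged DBD and compound were preincubated 60 min at RT before biotin-DNA plus Eu-anti-His/streptavidin-d2 detection overnight in the dark.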
# PXR = target: T2, PXR (Homo sapiens, UniProt O75469); experiment: PXR activity test in DPX2 cells (luciferase); assay type: cell-based; conditions: for Activation fold: DPX2 cells, 24 h; for Percentage relative to positive control: positive control rifampicin
# T2 construct: expressed in transfected cells; host or cells: DPX2 cells
# T2 sequence (O75469 1-434): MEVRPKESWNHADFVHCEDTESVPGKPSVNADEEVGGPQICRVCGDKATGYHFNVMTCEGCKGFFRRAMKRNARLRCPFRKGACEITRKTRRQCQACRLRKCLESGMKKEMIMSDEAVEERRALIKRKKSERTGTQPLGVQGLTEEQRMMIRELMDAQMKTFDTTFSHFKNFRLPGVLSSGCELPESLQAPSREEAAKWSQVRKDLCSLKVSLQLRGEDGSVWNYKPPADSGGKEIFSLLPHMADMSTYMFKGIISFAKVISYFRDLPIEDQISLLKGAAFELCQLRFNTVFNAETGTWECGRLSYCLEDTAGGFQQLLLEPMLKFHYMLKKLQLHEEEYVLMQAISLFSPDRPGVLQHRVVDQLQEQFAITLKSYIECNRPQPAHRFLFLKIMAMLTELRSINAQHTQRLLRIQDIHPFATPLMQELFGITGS
# Procedure: The cells were digested when they covered 80-90% of the bottom of the flask. • 3) The surface of the T-75 cultured cells was washed with 10 mL of PBS, PBS was removed by pipetting, 3-5 mL of trypsin was added, the cells were digested at 37°C for 5 min or until the cells were completely digested and in a suspended state, and excessive culture medium containing fetal bovine serum was added to terminate trypsin digestion. • 4) The cell suspension was transferred to a conical-bottom centrifuge tube and centrifuged at 150 g for 5 min at room temperature. The supernatant was carefully removed by pipetting and the cells were re-suspended in treatment medium to have a concentration of 3.2×10^5 cells/mL (incubation time 24 h, plate seeding density […]). In a 384-well cell culture plate, 25 μL of cell suspension was added to each well. The cell plate was placed in an incubator at 95% humidity, 37°C, and 5% CO2 for 24 h. […] The cell plates were placed in an incubator and further incubated for 24 h. • 3) Before starting experiments with the substrate, cell morphology and monolayer integrity were checked to ensure the monolayer is of acceptable quality for studies. […] GF-AFC substrate (10 μL) was added to Assay Buffer (10 ml) to form 2X reagent, which was then diluted into 1X reagent with 10 mL of PBS. ONE-Glo Luciferase substrate was added to ONE-Glo Luciferase Assay Buffer. • 3) The culture plate was taken out of the incubator, the culture medium was discarded, 1X CellTiter-Fluor^TM reagent was poured into the sample loading slot, 25 μL of reagent was added to each well of the culture plate using a pipetting workstation, and then the plate was placed in the incubator for incubation for 30 min. • 4) The cell culture plate was taken out from the incubator, cooled slightly to room temperature, and the fluorescence value was measured by automatic quantitative microplate reader. […] The activation fold of mRNA is calculated using the following formula: Fold activation = (RLUtest/RFUtest)/(RLUvehicle/RFUvehicle) [formula] 2) The percentage of cell viability of the compound is calculated as follows: Cell Viability % = (RFUtest/RFUvehicle) × 100 [formula] 3) The percentage relative to the positive control is calculated according to the following formula: Percent of positive control(%) = (Foldactivationtest/[…]:?}
# [1] = Concentration 1 (µM per method)
# [2] = Concentration 10 (µM per method)
SMILES,SC150 (p53-Y220C mutant protein) [nM],Activation fold (PXR; [1]),Percentage relative to positive control (PXR; [1]) [%],Activation fold (PXR; [2]),Percentage relative to positive control (PXR; [2]) [%]
"CN1CC[C@@H](Nc2cccc3c(CC(F)(F)F)c(C#CCNC(=O)c4cnn(C(C)(C)C)c4)nn23)[C@@H](F)C1 [Compound 001, 1-tert-butyl-N-[3-(7-{[(3S,4R)-3-fluoro-1-methylpiperidin-4-yl]amino}-3-(2,2,2-trifluoroethyl)pyrazolo[1,5-a]pyridin-2-yl)prop-2-yn-1-yl]-1H-pyrazole-4-carboxamide]",10,1.41,8.07,3.05,17.50
CN1CC[C@@H](Nc2cccc3c(CC(F)(F)F)c(C#CCNC(=O)c4cnn(C(C)(C)C)c4N)nn23)[C@@H](F)C1 [Compound 047],7,1.12,5.67,2.66,13.47
"CCn1ncc(C(=O)NCC#Cc2nn3c(N[C@@H]4CCN(C)C[C@@H]4F)cccc3c2CC(F)(F)F)c1N [Compound 261, 5-amino-1-ethyl-N-[3-(7-{[(3S,4R)-3-fluoro-1-methylpiperidin-4-yl]amino}-3-(2,2,2-trifluoroethyl)pyrazolo[1,5-a]pyridin-2-yl)prop-2-yn-1-yl]-1H-pyrazole-4-carboxamide]",6,0.89,4.48,1.43,7.20
"CNC(=O)c1ccc(NCC#Cc2cc3c(N[C@@H]4CCN(C)C[C@@H]4F)cccc3n2CC(F)(F)F)c(OC)c1 [Control compound, reference compound]",14,1.40,8.61,8.58,52.82
